Assays:
UCHL1 = biological target: T1, UCHL1 (Homo sapiens, UniProt P09936); assay: In-cell target engagement using HA-Ub-VME competition, immunoblot; assay type: cell-based; design: endogenous in cells; host or cells: HEK293T; details: HEK293T cells, 1 hour, in-lysate HA-Ub-VME competition, western blot
T1 sequence (P09936 1-223): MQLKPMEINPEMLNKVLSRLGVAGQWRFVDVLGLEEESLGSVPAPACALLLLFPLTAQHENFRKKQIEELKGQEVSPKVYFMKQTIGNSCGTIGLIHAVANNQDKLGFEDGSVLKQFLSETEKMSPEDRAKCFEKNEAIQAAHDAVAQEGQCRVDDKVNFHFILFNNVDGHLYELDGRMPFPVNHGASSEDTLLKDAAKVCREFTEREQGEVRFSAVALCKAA
Description: (§1) We next determined cellular engagement of endogenous USP30 with IMP-2587 or IMP-2586. […] In-cell concentration-dependent competition by IMP-2587 and IMP-2586 for USP30 were confirmed below 100 nM probe (Fig. 2b and c), whilst engagement of an exemplar unrelated DUB, UCHL1, occurred only at a much higher concentration (30 000 nM). We hypothesise that incomplete modification of USP30 by HA-Ub-VME is likely due to limited retention of USP30 activity in cell lysates, which have likely had the USP30 transmembrane domain compromised, highlighting the potential utility of a small molecule USP30 ABP applicable directly in intact cells. Direct USP30 target engagement by IMP-2587 and IMP-2586 was confirmed in HEK293T cells following 1 h probe treatment followed by cell lysis and CuAAC bio-orthogonal ligation to capture reagent azido-TAMRA-biotin (AzTB) for IMP-2587 or alkyne-TAMRA-biotin for IMP-2586 (Fig. 3a).[27] […] This unspecific background labelling is presumably due to the previously reported higher off-target CuAAC reactivity of an alkyne-bearing capture reagent, applied here due to incorporation of an azide tag in IMP-2586.[28] Moreover, the labelling of USP30 was further confirmed by biotin pulldown and immunoblotting.
(§2) 2) USP30 in-cell engagement analysis […]
(§3) Protein concentration was determined by DC Protein assay (Bio-RAD). […]

USP30 = biological target: T2, USP30 (Homo sapiens, UniProt Q70CQ3); assay: as above; assay type: cell-based; details: HEK293T cells, 1 hour, in-lysate HA-Ub-VME competition, western blot
T2 construct: We next determined cellular engagement of endogenous USP30 with IMP-2587 or IMP-2586; endogenous in cells; host or cells: HEK293T
T2 sequence (Q70CQ3 1-517): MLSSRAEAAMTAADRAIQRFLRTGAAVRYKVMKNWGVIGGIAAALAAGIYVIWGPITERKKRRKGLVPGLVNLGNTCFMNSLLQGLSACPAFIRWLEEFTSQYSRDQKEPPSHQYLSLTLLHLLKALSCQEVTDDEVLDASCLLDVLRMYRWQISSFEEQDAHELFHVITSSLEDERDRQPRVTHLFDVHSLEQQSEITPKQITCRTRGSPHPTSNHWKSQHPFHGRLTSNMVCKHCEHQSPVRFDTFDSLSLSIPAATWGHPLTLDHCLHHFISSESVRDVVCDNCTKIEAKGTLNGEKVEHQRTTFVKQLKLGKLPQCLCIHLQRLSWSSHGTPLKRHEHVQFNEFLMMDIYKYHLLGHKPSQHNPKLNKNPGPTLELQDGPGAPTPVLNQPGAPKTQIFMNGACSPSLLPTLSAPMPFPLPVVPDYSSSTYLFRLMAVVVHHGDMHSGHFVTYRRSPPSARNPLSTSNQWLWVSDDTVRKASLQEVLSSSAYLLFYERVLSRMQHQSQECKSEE
Description: as §1, §2, §3

Row | SMILES | concentration at which UCHL1 engagement occurred (UCHL1) | probe concentration at which in-cell competition for USP30 was confirmed (USP30)
1 | C#Cc1cccc(-c2cc(NC(=O)CC3CCN(C#N)C3)on2)c1 (stereo not shown) [IMP-2587] | 30 000 nM | below 100 nM
2 | N#CN1CC[C@@H](NC(=O)c2cc(-c3ccccc3Oc3ccc(N=[N+]=[N-])cc3)n[nH]2)C1 [IMP-2586] | 30 000 nM | below 100 nM
